Structures are written as SMILES.

A short description of this series: gradient 5% acetonitrile 3 min, to 50% in 2 min, to 85% in 15 min, held 3 min, 100 µL/min. The settings on record: column: Zorbax Extend-C18 2.1 x 50 mm; eluents: water / acetonitrile, 0.1% formic acid. In short, it runs like this:
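Retention time was recorded from adduct peaks, which were picked computationally and each inspected manually. Pure standards ran in mixtures of ~100 molecules on HPLC coupled to a quadrupole time-of-flight mass spectrometer, in positive and negative ionization mode, through a Zorbax Extend-C18 column (2.1 × 50 mm, 1.8 μm) at 100 μL/min. Eluents were water and acetonitrile, each with 0.1% formic acid.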
For `Cc1ccc(CNC(=O)c2nnc(-c3ccc(S(=O)(=O)N4CCOCC4)cc3)o2)cc1`, the RP-LC retention time is 863 s.
Next, `CC(C)n1c(=O)oc2cc(S(=O)(=O)N3CCN(C(=O)C4(c5ccccc5)CC4)CC3)ccc21`: 902 s.
Next, `NC(=O)C1CCN(C(=O)C2CCN(S(=O)(=O)Cc3ccc(F)cc3)CC2)CC1`: 644 s.
Next, `CCc1nnc(NC(=O)CSc2nc3ccccc3[nH]2)s1`: 656 s; `CCOc1ccc(CC(=O)N2CCc3cc(-c4csc(C)n4)ccc32)cc1`: 1060 s.
For the molecule `CCOc1ccc(-c2nc(C3CC(=O)N(c4ccc(C)cc4)C3)no2)cc1` (stereo not drawn), the RP-LC retention time stood at 1070 s.
The figure for `Cc1ccc(Nc2nc(C)cc(N3CCN(C(=O)Nc4ccc5c(c4)OCO5)CC3)n2)cc1` is 676 s.
Molecule `COc1ccc(N2C(=O)C3N=NN(Cc4nc(-c5ccc(Cl)cc5)no4)C3C2=O)cc1` (stereo not drawn) showed an RP-LC retention time of 1000 s.
The figure for `CCn1cc(C(=O)Nc2cccc(C)c2)c(S(=O)(=O)N2CCSCC2)n1` is 902 s; for `Cc1noc(-c2ccc(=O)n(Cc3ccc(F)cc3)n2)n1` it is 807 s; for `CC(=O)Nc1nsc(N2CCC(C(=O)NCc3ccc(F)cc3Cl)CC2)n1` it is 863 s.
Next, `O=C(Nc1ccc(F)cc1)N1CCC(CCOc2ccncc2)CC1`: 616 s; `CC(C)c1noc(C2Cc3ccccc3N2C(=O)Nc2ccc3c(c2)OCCO3)n1` (stereo not drawn): 936 s; `c1ccc2c(CCNc3ncnc4nc[nH]c34)c[nH]c2c1`: 577 s.
The figure for `CC1Oc2ccc(S(=O)(=O)N3CCC(C(=O)NC4CCCCCCC4)CC3)cc2NC1=O` (stereo not drawn) is 907 s; for `Cc1cc(F)ccc1NC(=O)C1CCN(S(=O)(=O)c2cn(C(C)C)cn2)CC1` it is 732 s.
As to `COC(=O)c1ccc(NC(=O)N2CCOc3ccc(Cl)cc32)cc1`, the RP-LC retention time stood at 1000 s.
The figure for `CCc1nc(-c2csc(S(=O)(=O)N3CCC(C(=O)Nc4ccc(C)c(F)c4)CC3)c2)no1` is 1060 s; for `CCCCn1cc(S(=O)(=O)NCc2ccc(C)cc2)c2cccnc21` it is 984 s; for `CCC(=O)N1CCc2cc(N3CC(C(=O)Nc4cccc(F)c4C)CC3=O)ccc21` (stereo not drawn) it is 801 s.
Next, `COC[C@@H]1CN(S(=O)(=O)c2ccc(F)cc2)C[C@H]1c1nc(C)no1`: 858 s; `Cc1ccc(NC(=O)Cn2c(=O)n(-c3ccc(F)cc3)c(=O)c3c2cc(C)n3C)cc1Cl`: 946 s.
The figure for `O=C(c1cn2cc(Cl)ccc2n1)N1CCN(c2ccccc2)CC1` is 804 s.
`O=C(COc1ccccc1)NCC1CC(=O)N(Cc2ccc(F)cc2)C1` (stereo not drawn) came in with an RP-LC retention time of 692 s.
In turn, `O=C(CCC[C@@H]1[C@H]2CCCN3CCC[C@@H](CN1C(=O)c1ccccc1)[C@@H]23)NC1CCS(=O)(=O)C1` (stereo partly drawn) yielded an RP-LC retention time of 574 s.
Next, `COc1ccc(CC(=O)Nc2c(-c3ccc(F)cc3)nc3ccccn23)cc1OC`: 597 s; `N#CCN(c1ccc(F)cc1)S(=O)(=O)c1ccc2nncn2c1`: 669 s.
Next, `CC(CCc1ccccc1)NC(=O)c1cc2sc(Cl)cc2n1C` (stereo not drawn): 1170 s; `CCN1CCN(c2ccc(NC(=O)c3ccccc3Cl)cn2)C1=O`: 672 s; `O=C(NCc1cccs1)C1CCN(c2cnc3nccnc3c2)CC1`: 632 s.
Next, `COc1ccc(-c2noc(Cc3nc(-c4cc(C)c(C)cc4C)cs3)n2)cc1`: 1340 s; `O=C(Nc1nnc(C2=COCCO2)o1)c1cc2cc([N+](=O)[O-])ccc2s1`: 759 s; `CSc1ccc(CNC(=O)c2cn3ccc(C)cc3n2)cc1`: 699 s.
`Cc1cc(Cl)ccc1NC(=O)C1CCN(S(=O)(=O)c2cc(C(=O)N3CCCC3)cs2)CC1` yielded an RP-LC retention time of 892 s.
`Cc1c(Cl)cccc1NC(=O)N1CCC(OC2CCN(S(C)(=O)=O)CC2)CC1` showed an RP-LC retention time of 743 s.
Next, `O=C(c1c2c(nc3ccccc13)C(=O)N(C1CCCCC1)C2)N1CCN(c2ccccn2)CC1`: 643 s.
The figure for `COc1ccc(NC(=O)c2c(O)c3cccnc3n(-c3ccccc3)c2=O)cc1OC` is 800 s.
`COc1ccc(NC(=O)C2CCN(c3nnc4cccc(C)n34)CC2)cc1Cl` yielded an RP-LC retention time of 700 s.
In turn, `COc1ccc(-c2nc3cccnc3n2C2CCN(C(=O)NCc3ccco3)C2)cc1` (stereo not drawn) yielded an RP-LC retention time of 627 s.
In the case of `CCCC(=O)N1CCN(c2ccc(=O)n(-c3ccc(Cl)cc3)n2)CC1`, the RP-LC retention time turned out to be 778 s.
Next, `Cc1ccc(CNC(=O)CN2C(=O)NC3(CCCCC3)C2=O)cc1`: 774 s; `CC(C)c1noc(-c2ccnc(-n3cnc(C(=O)NC4CCCCC4)c3)c2)n1`: 1020 s; `O=C(O)C1CCN(S(=O)(=O)c2ccc(Cl)c(-c3nnc(-c4ccccc4)o3)c2)CC1`: 887 s.
The figure for `CCS(=O)(=O)Nc1ccc(-c2noc(COc3ccccc3)n2)cc1` is 923 s; for `COc1cccc(Cc2nc(-c3cccc(-c4ccnn4C)c3)no2)c1` it is 1010 s.
`CC(C)NC(=O)NCCC1CCN(S(=O)(=O)c2ccccc2)CC1`: the RP-LC retention time was determined as 732 s.
Next, `Cc1cc(NC(=O)c2cnc3c(c2)c(=O)n(C)c(=O)n3-c2ccccc2)ccc1F`: 942 s.
The figure for `Cc1ccc2c(c1)N(S(C)(=O)=O)CCC(C(=O)NCc1ccccc1)O2` (stereo not drawn) is 875 s; for `O=C(CCc1nnc2c(N3CCCCC3)nc3ccccc3n12)NCc1ccccc1F` it is 903 s.
Next, `CC(NC(=O)C1CCN(c2cnc3nccnc3c2)CC1)c1ccc(F)cc1` (stereo not drawn): 702 s; `Cc1cccc(-c2noc(Cn3cnc4c(cnn4-c4ccc(C)c(Cl)c4)c3=O)n2)c1`: 1280 s.
As to `O=C(NCc1ccc(F)cc1F)c1cnn2c(-c3ccc4c(c3)OCO4)ccnc12`, the RP-LC retention time was determined as 1000 s.
The figure for `COc1cc(C2CN(C(=O)c3ccc4c(c3)OCO4)CC2C(=O)NCCC(C)C)cc(OC)c1OC` (stereo not drawn) is 738 s; for `Cc1cc(C)n2c(Nc3ccc(C(C)C)cc3)c(-c3ccc(Cl)cc3)nc2n1` it is 985 s; for `CCc1nc2c(NC(=O)Nc3ccc4c(c3)CCC4)cccn2n1` it is 957 s.
The figure for `Cc1cccc(NC(=O)Nc2nccn(-c3ccc(Br)cc3)c2=O)c1` is 1050 s.
The figure for `COc1cc(C(=O)N2CCN(c3cc(N(C)C)nc(C)n3)CC2)cc(OC)c1OC` is 599 s; for `O=[N+]([O-])c1ccc(/C=C\c2ccncc2)cc1` it is 685 s.
Turning to `CCc1cc(=O)n(CC(=O)Nc2cccc(C)c2C)c(N)n1`, the RP-LC retention time was 608 s.
Next, `Cc1cc(C)c(CNC(=O)C2CCN(c3cncnc3N3CCOCC3)CC2)c(C)c1`: 681 s; `Cc1noc(C)c1CNC(=O)C(C)Oc1ccc(Cl)cc1` (stereo not drawn): 811 s; `Cc1sc2cc(C(=O)NCCN(C)C)[nH]c2c1CN1CCCCC1`: 536 s.
The figure for `Cc1noc(C)c1S(=O)(=O)N1CCC(c2nc(CCOCc3ccccc3)no2)C1` (stereo not drawn) is 984 s; for `CC(CCc1ccccc1)NC(=O)c1ccc(-n2cccn2)nc1` (stereo not drawn) it is 858 s.
The molecule `CCC(=O)Nc1ccc(-n2cnc(C(=O)N3CCN(c4ccccc4)CC3)c2)nc1` showed an RP-LC retention time of 708 s.
The figure for `Cc1cc(C)cc(NC(=O)C2CCN(S(C)(=O)=O)c3ccccc3O2)c1` (stereo not drawn) is 976 s; for `O=C(NCCc1ccccc1)Nc1nccn(-c2ccc(F)c(F)c2)c1=O` it is 903 s; for `Cc1ccc(-c2noc(CN3N=NC4C(=O)N(c5ccc(C)cc5)C(=O)C43)n2)cc1` (stereo not drawn) it is 1020 s.
Next, `Cc1ccccc1CNC(=O)C1(C)CCCN(C(=O)Nc2ccccc2Br)C1` (stereo not drawn): 1020 s; `CCc1ccc(CNC(=O)Cn2ccc3c(=O)n(C)c(=O)n(C)c32)cc1`: 716 s; `Cc1cccc(NC(=O)C2CCN(S(=O)(=O)c3cc(C(=O)N(C)C)cs3)CC2)c1C`: 790 s.
The figure for `Cc1sc(-c2cc(C(F)(F)F)on2)cc1S(=O)(=O)N1CCN(c2ccccn2)CC1` is 891 s; for `O=S(=O)(Cc1ccc(Cl)cc1)N1CCc2nc(-c3ccc(Cl)cc3)ncc2C1` it is 1210 s; for `CCNC(=O)C1CCN(c2nc3ccc(-c4ccccc4F)nc3s2)CC1` it is 848 s.
`O=C(NCc1cccc(Cl)c1)C1CCCN(c2nccnc2Sc2ccccc2)C1` (stereo not drawn) registered an RP-LC retention time of 1080 s.
Turning to `CSc1ccc(-c2nc3ccc(Cl)cn3c2Nc2ccc(C)cc2)cc1`, the RP-LC retention time came to 954 s.
The figure for `COc1ccc(NC(=O)N2[C@H]3CC[C@@H]2c2cncnc2C3)cc1OC` is 839 s; for `CCN1CCN(c2ncc3c(n2)CC(C)CC3=O)CC1` (stereo not drawn) it is 575 s.

The values above are taken from the METLIN SMRT retention time set (Domingo-Almenara et al. 2019).
